Results: ChEMBL document CHEMBL1142460, “2,4(5)-Diarylimidazoles: synthesis and biological evaluation of a new class of sodium channel blockers against hNa(v)1.2” (Bioorg Med Chem Lett, 2008)

Assays:
[1] = target: Sodium channel protein type 2 subunit alpha (Homo sapiens) (UniProt Q99250); assay: Inhibition of Nav1.2 channel in HEK cells at 10 uM by patch clamp technique; type: cell-based; set-up: scale not given: the % may be the effect or the level left; conditions: HEK293
[2] = target: Sodium channel protein type 2 subunit alpha (Homo sapiens) (UniProt Q99250); assay: Inhibition of Nav1.2 channel in HEK cells at 100 uM by patch clamp technique; type: cell-based; set-up: scale not given: the % may be the effect or the level left; conditions: HEK293

Sodium channel protein type 2 subunit alpha (Homo sapiens), sequence (Q99250 whole entry, looked up): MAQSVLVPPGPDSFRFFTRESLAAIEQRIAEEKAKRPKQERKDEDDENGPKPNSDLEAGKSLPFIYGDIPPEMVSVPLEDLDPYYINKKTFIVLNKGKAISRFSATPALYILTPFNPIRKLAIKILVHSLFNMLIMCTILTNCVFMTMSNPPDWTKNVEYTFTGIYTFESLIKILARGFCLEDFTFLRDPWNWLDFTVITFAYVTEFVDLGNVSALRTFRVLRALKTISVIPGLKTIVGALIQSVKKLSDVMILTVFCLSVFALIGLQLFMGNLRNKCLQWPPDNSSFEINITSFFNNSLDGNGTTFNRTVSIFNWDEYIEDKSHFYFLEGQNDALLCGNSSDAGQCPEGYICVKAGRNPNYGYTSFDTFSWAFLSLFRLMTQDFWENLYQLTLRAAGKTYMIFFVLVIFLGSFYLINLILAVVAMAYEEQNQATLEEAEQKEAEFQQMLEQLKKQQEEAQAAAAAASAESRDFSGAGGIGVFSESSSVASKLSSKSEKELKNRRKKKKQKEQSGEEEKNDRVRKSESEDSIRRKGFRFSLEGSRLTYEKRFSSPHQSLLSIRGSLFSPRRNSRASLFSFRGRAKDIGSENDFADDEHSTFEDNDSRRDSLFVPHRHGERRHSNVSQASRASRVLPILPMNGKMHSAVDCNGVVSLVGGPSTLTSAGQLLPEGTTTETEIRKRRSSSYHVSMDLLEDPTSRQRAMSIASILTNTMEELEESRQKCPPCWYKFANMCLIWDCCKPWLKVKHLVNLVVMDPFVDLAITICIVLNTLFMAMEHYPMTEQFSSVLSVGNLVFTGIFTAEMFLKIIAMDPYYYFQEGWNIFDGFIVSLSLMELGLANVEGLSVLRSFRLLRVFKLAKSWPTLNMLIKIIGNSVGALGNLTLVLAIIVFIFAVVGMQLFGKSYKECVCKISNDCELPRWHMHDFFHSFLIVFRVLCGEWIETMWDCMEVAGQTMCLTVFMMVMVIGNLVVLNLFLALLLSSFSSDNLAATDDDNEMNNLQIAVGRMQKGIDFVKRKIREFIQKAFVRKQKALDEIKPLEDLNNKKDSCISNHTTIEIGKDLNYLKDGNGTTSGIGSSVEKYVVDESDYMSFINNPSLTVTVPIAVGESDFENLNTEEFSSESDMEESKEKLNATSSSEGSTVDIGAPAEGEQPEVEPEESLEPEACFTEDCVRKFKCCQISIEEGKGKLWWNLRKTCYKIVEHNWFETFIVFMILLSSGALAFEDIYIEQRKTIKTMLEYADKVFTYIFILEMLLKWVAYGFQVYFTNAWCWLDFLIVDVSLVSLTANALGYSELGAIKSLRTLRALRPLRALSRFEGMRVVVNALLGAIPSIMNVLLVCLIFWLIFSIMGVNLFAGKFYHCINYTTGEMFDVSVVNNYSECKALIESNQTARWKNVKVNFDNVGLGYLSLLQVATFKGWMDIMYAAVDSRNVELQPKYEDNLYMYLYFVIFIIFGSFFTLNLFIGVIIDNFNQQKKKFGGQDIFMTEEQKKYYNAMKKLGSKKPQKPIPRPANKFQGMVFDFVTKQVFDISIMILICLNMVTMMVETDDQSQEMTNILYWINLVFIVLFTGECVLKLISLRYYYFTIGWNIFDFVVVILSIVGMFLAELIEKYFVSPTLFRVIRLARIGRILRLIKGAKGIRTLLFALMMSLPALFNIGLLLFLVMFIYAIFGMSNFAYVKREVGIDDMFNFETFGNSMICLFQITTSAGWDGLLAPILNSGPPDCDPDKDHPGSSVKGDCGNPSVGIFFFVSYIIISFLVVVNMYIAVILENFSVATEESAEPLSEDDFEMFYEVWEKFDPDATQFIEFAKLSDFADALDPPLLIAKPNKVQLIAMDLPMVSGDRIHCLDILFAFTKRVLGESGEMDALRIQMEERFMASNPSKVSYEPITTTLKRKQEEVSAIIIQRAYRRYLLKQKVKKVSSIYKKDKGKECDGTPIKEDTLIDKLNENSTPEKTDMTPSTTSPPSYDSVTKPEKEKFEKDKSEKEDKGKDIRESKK

Row | Activity [1] | Activity [2] | SMILES
1 | 4.7% | 22.5% | c1ccc(-c2c[nH]c(-c3cccnc3)n2)cc1
2 | 10.6% | 21.2% | O=C1NC(=O)C(c2ccccc2)(c2ccccc2)N1
3 | 2.7% | 37.7% | c1ccc(-c2c[nH]c(-c3ccco3)n2)cc1
4 | 5.1% | 70.9% | c1ccc(-c2c[nH]c(-c3ccsc3)n2)cc1
5 | 37.7% | 72.4% | c1ccc(-c2c[nH]c(-c3cc4ccccc4o3)n2)cc1
6 | 8% | 40.7% | c1ccc(-c2c[nH]c(-c3ccncc3)n2)cc1
7 | 7.8% | 80.5% | c1ccc(-c2c[nH]c(-c3ccccc3)n2)cc1
8 | 26.7% | 91.5% | c1ccc(-c2c[nH]c(C3CCCCC3)n2)cc1
9 | 12.1% | 35.1% | Nc1nnc(-c2cccc(Cl)c2Cl)c(N)n1
10 | 11.9% | 27.3% | c1ccc(-c2c[nH]c(-c3ccoc3)n2)cc1
